Reference: PubChem BioAssay AID248 (DTP/NCI, 2004)
“And” between values parts separate entries of the source, which are not always exact repeats. Equal entries are not always repeated. Inconclusive results and toxic doses are left out.

System: L1210 leukemia ip in BDF1 mice, survival T/C
Assay: NCI In Vivo Anticancer Drug Screen. Data for tumor model L1210 Leukemia (intraperitoneal) in B6D2F1 (BDF1) mice
Details: endpoint: mean survival time, higher = longer survival
Outline: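 Transplanted-tumor mice were given test agent; controls received vehicle only. Survival readings from the two groups were divided (treated over control).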

[1] = dose: 100.0 mg/kg/injection, schedule: Q04DX003 (ip), vehicle: Klucel (hydroxypropylcellulose) (HPC)
[2] = dose: 200.0 mg/kg/injection, schedule: Q04DX003 (ip), vehicle: Klucel (hydroxypropylcellulose) (HPC)
[3] = dose: 100.0 mg/kg/injection, schedule: Q01DX009 (ip), vehicle: saline with Tween-80
[4] = dose: 100.0 mg/kg/injection, schedule: Q04DX002 (ip), vehicle: saline with Tween-80
[5] = dose: 200.0 mg/kg/injection, schedule: Q04DX002 (ip), vehicle: saline with Tween-80
[6] = dose: 100.0 mg/kg/injection, schedule: Q01DX009 (ip), vehicle: Klucel (hydroxypropylcellulose) (HPC)
[7] = dose: 200.0 mg/kg/injection, schedule: Q01DX009 (ip), vehicle: Klucel (hydroxypropylcellulose) (HPC)
[8] = dose: 400.0 mg/kg/injection, schedule: Q01DX009 (ip), vehicle: Klucel (hydroxypropylcellulose) (HPC)
[9] = dose: 100.0 mg/kg/injection, schedule: Q01DX001 (ip), vehicle: carboxymethylcellulose (CMC)
[10] = dose: 200.0 mg/kg/injection, schedule: Q01DX001 (ip), vehicle: carboxymethylcellulose (CMC)
[11] = dose: 400.0 mg/kg/injection, schedule: Q01DX001 (ip), vehicle: carboxymethylcellulose (CMC)
[12] = dose: 100.0 mg/kg/injection, schedule: Q01DX001 (ip), vehicle: Klucel (hydroxypropylcellulose) (HPC)
[13] = dose: 200.0 mg/kg/injection, schedule: Q01DX001 (ip), vehicle: Klucel (hydroxypropylcellulose) (HPC)
[14] = dose: 400.0 mg/kg/injection, schedule: Q04DX003 (ip), vehicle: Klucel (hydroxypropylcellulose) (HPC)
[15] = dose: 100.0 mg/kg/injection, schedule: Q04DX003 (ip), vehicle: other
[16] = dose: 200.0 mg/kg/injection, schedule: Q04DX003 (ip), vehicle: other
[17] = dose: 400.0 mg/kg/injection, schedule: Q04DX003 (ip), vehicle: other

Compound: O=C(NCCCN1CC1)C(=O)NNc1ccccc1
- T/C [1]: 102 % of control
- T/C [2]: 93 % of control

Compound: Oc1ccccc1C1CC2CCC1C2 (configuration not stated)
- T/C (dose: 50.0 mg/kg/injection, schedule: Q04DX002 (ip), vehicle: saline with Tween-80): 106 % of control
- T/C [3]: 107 % of control
- T/C [4]: 103 % of control
- T/C [5]: 100 % of control

Compound: NC(=S)c1cn(C2OC(CO)C(O)C2O)c2ncnc(N)c12 (configuration not stated)
- T/C (dose: 0.5 mg/kg/injection, schedule: Q03HX016 (ip), vehicle: other): 118 % of control
- T/C (dose: 0.5 mg/kg/injection, schedule: Q03HX024 (ip), vehicle: saline): 156 % of control
- T/C (dose: 1.0 mg/kg/injection, schedule: Q03HX016 (ip), vehicle: other): 118 % of control
- T/C (dose: 1.0 mg/kg/injection, schedule: Q03HX024 (ip), vehicle: saline): 172 % of control
- T/C (dose: 2.0 mg/kg/injection, schedule: Q03HX016 (ip), vehicle: other): 176 % of control
- T/C (dose: 2.0 mg/kg/injection, schedule: Q03HX024 (ip), vehicle: saline): 124 % of control
- T/C (dose: 3.75 mg/kg/injection, schedule: Q01DX009 (ip), vehicle: carboxymethylcellulose (CMC)): 110 % of control
- T/C (dose: 4.0 mg/kg/injection, schedule: Q08DX002 (ip), vehicle: other): 123 % of control
- T/C (dose: 5.0 mg/kg/injection, schedule: Q01DX001 (ip), vehicle: saline): 112 % of control
- T/C (dose: 7.5 mg/kg/injection, schedule: Q01DX001 (ip), vehicle: carboxymethylcellulose (CMC)): 117 % of control
- T/C (dose: 8.0 mg/kg/injection, schedule: Q04DX003 (ip), vehicle: saline): 151 % of control
- T/C (dose: 8.0 mg/kg/injection, schedule: Q08DX002 (ip), vehicle: other): 123 % of control
- T/C (dose: 10.0 mg/kg/injection, schedule: Q01DX001 (ip), vehicle: saline): 118 % of control
- T/C (dose: 15.0 mg/kg/injection, schedule: Q01DX001 (ip), vehicle: carboxymethylcellulose (CMC)): 122 % of control
- T/C (dose: 16.0 mg/kg/injection, schedule: Q04DX003 (ip), vehicle: saline): 96 % of control

Compound: CCOC(=O)c1ccc(NC(=O)Oc2ccc(OC)cc2)cc1
- T/C [6]: 96 % of control
- T/C [7]: 100 % of control
- T/C [8]: 98 % of control

Compound: COc1ccc(NC(=O)Nc2ccccc2Cl)c(Cl)c1
- T/C [4]: 90 % of control
- T/C [5]: 87 % of control
- T/C (dose: 400.0 mg/kg/injection, schedule: Q04DX002 (ip), vehicle: saline with Tween-80): 87 % of control

Compound: O=[N+]([O-])c1ccc(O)c(N=Cc2ccccc2O)c1
- T/C [9]: 102 % of control
- T/C [10]: 96 % of control
- T/C [11]: 96 % of control

Compound: CC1(C)[C@@H]2CC[C@]1(C)[C@@H](O)C2
- T/C [12]: 104 % of control
- T/C [1]: 102 % of control
- T/C [13]: 96 % of control
- T/C [2]: 102 % of control
- T/C (dose: 400.0 mg/kg/injection, schedule: Q01DX001 (ip), vehicle: Klucel (hydroxypropylcellulose) (HPC)): 93 % of control
- T/C [14]: 97 % of control

Compound: c1ccc2occc2c1
- T/C (dose: 100.0 mg/kg/injection, schedule: Q01DX001 (ip), vehicle: saline): 103 % of control

Compound: Cc1cc[n+](C2CC(C)(C)c3ccccc3C2=O)cc1 (configuration not stated)
- T/C (dose: 12.5 mg/kg/injection, schedule: Q01DX001 (ip), vehicle: Klucel (hydroxypropylcellulose) (HPC)): 100 % of control
- T/C (dose: 25.0 mg/kg/injection, schedule: Q01DX001 (ip), vehicle: Klucel (hydroxypropylcellulose) (HPC)): 113 % of control
- T/C (dose: 50.0 mg/kg/injection, schedule: Q01DX001 (ip), vehicle: Klucel (hydroxypropylcellulose) (HPC)): 98 % of control

Compound: O=[N+]([O-])c1ccc(Cc2ccc([N+](=O)[O-])cc2)cc1
- T/C (dose: 100.0 mg/kg/injection, schedule: Q04DX003 (ip), vehicle: saline with Tween-80): 102 % of control
- T/C (dose: 200.0 mg/kg/injection, schedule: Q04DX003 (ip), vehicle: saline with Tween-80): 109 % of control
- T/C (dose: 400.0 mg/kg/injection, schedule: Q04DX003 (ip), vehicle: saline with Tween-80): 98 % of control

Compound: COc1ccc(/C=N/Nc2nnc(N/N=C/c3ccc(OC)c(O)c3)c3ccccc23)cc1O
- T/C (dose: 50.0 mg/kg/injection, schedule: Q01DX001 (ip), vehicle: carboxymethylcellulose (CMC)): 103 % of control
- T/C [9]: 103 % of control
- T/C [10]: 103 % of control
- T/C [11]: 100 % of control

Compound: c1ccc(-c2cccc[c]2[Hg][c]2ccccc2-c2ccccc2)cc1
- T/C [9]: 96 % of control
- T/C [10]: 93 % of control
- T/C [11]: 93 % of control

Compound: O=C1CC2CCCCC2O1 (configuration not stated)
- T/C (dose: 50.0 mg/kg/injection, schedule: Q01DX009 (ip), vehicle: saline with Tween-80): 96 % of control
- T/C (dose: 75.0 mg/kg/injection, schedule: Q01DX001 (ip), vehicle: other): 103 % of control
- T/C [3]: 88 % of control
- T/C (dose: 150.0 mg/kg/injection, schedule: Q01DX001 (ip), vehicle: other): 97 % of control and 115 % of control

Compound: CN=C(NO)c1ccccc1
- T/C [12]: 107 % of control
- T/C [13]: 98 % of control

Compound: CCCCCCCCCCC[CH2][Hg][CH2]CCCCCCCCCCC
- T/C [1]: 96 % of control
- T/C [2]: 89 % of control
- T/C [14]: 87 % of control

Compound: CC(=O)NC(N)=NCCCC(N)C(=O)O (configuration not stated)
- T/C (dose: 75.0 mg/kg/injection, schedule: Q04DX003 (ip), vehicle: Klucel (hydroxypropylcellulose) (HPC)): 91 % of control
- T/C (dose: 150.0 mg/kg/injection, schedule: Q04DX003 (ip), vehicle: Klucel (hydroxypropylcellulose) (HPC)): 94 % of control
- T/C (dose: 300.0 mg/kg/injection, schedule: Q04DX003 (ip), vehicle: Klucel (hydroxypropylcellulose) (HPC)): 94 % of control

Compound: CC(/C=N/NC(=O)NO)=N\NC(=O)NO
- T/C (dose: 100.0 mg/kg/injection, schedule: Q01DX001 (ip), vehicle: other): 98 % of control
- T/C [3]: 98 % of control
- T/C [15]: 112 % of control
- T/C (dose: 200.0 mg/kg/injection, schedule: Q01DX001 (ip), vehicle: other): 98 % of control
- T/C (dose: 200.0 mg/kg/injection, schedule: Q01DX009 (ip), vehicle: saline with Tween-80): 97 % of control
- T/C [16]: 102 % of control
- T/C (dose: 400.0 mg/kg/injection, schedule: Q01DX001 (ip), vehicle: other): 104 % of control
- T/C (dose: 400.0 mg/kg/injection, schedule: Q01DX009 (ip), vehicle: saline with Tween-80): 104 % of control
- T/C [17]: 98 % of control

Compound: CC(=O)/C=C/c1ccccc1O
- T/C (dose: 75.0 mg/kg/injection, schedule: Q04DX002 (ip), vehicle: gum acacia): 98 % of control
- T/C (dose: 150.0 mg/kg/injection, schedule: Q04DX002 (ip), vehicle: gum acacia): 100 % of control
- T/C (dose: 300.0 mg/kg/injection, schedule: Q04DX002 (ip), vehicle: gum acacia): 100 % of control

Compound: O=C1OCC(O)(c2ccccc2)C1c1ccccc1 (configuration not stated)
- T/C (dose: 55.0 mg/kg/injection, schedule: Q01DX Z (ip), vehicle: methylcellulose (MC)): 98 % of control
- T/C (dose: 83.0 mg/kg/injection, schedule: Q01DX Z (ip), vehicle: methylcellulose (MC)): 118 % of control
- T/C (dose: 125.0 mg/kg/injection, schedule: Q01DX Z (ip), vehicle: methylcellulose (MC)): 104 % of control

Compound: CCOC(=O)CC(COC)C(C(=O)OCC)C(=O)OCC (configuration not stated)
- T/C (dose: 100.0 mg/kg/injection, schedule: Q01DX009 (ip), vehicle: other): 100 % of control
- T/C [15]: 88 % of control
- T/C (dose: 200.0 mg/kg/injection, schedule: Q01DX009 (ip), vehicle: other): 100 % of control
- T/C [16]: 94 % of control
- T/C (dose: 400.0 mg/kg/injection, schedule: Q01DX009 (ip), vehicle: other): 98 % of control
- T/C [17]: 105 % of control

Compound: O=CC1CC2c3ccccc3C1c1ccccc12 (configuration not stated)
- T/C (dose: 100.0 mg/kg/injection, schedule: Q01DX009 (ip), vehicle: gum acacia): 106 % of control
- T/C (dose: 100.0 mg/kg/injection, schedule: Q04DX003 (ip), vehicle: gum acacia): 95 % of control
- T/C (dose: 200.0 mg/kg/injection, schedule: Q01DX009 (ip), vehicle: gum acacia): 95 % of control
- T/C (dose: 200.0 mg/kg/injection, schedule: Q04DX003 (ip), vehicle: gum acacia): 92 % of control
- T/C (dose: 400.0 mg/kg/injection, schedule: Q01DX009 (ip), vehicle: gum acacia): 102 % of control
- T/C (dose: 400.0 mg/kg/injection, schedule: Q04DX003 (ip), vehicle: gum acacia): 87 % of control

Compound: CCOc1ccccc1NC(=O)c1ccccc1Cl
- T/C [6]: 102 % of control
- T/C [7]: 108 % of control
- T/C [8]: 93 % of control
